Assay results as given in PMC7000700, “RyR1-targeted drug discovery pipeline integrating FRET-based high-throughput screening and human myofiber dynamic Ca^2+ assays” (Scientific Reports, 2020).

How the values were obtained:
RyR1 [1] = molecular target: T1, RyR1 (Sus scrofa, UniProt P16960); assay: FLT-FRET between D-FKBP and A-CaM bound to RyR1 in skeletal SR membranes (HTS and dose-response); type: binding, porcine; set-up: RyR1 in skeletal SR membranes, and RyR2 in cardiac SR membranes; from tissue; host or cells: porcine longissimus dorsi muscle (heavy SR vesicles); conditions: for Hit in primary FLT-FRET HTS of LOPAC (FRET altered by > 4 SD vs DMSO): 10 μM compound, 2-hour incubation, 5 mM GSSG, 0.3 μM A-CaM, 1536-well; for Influence of GSSG vs GSH on the FRET dose-response effect: 5 mM GSSG vs 5 mM GSH; for Effect on FRET: biphasic dose-response, isoform not stated
Experimental: To confer compatibility with current HTS standards in industrial drug discovery facilities, we miniaturized our screening format from the previously established 384-well plates, requiring 50 μL sample per well[19], to 1536-well plates, requiring 5 μL sample per well. The complete 1280-compound library of pharmacologically active compounds (LOPAC) was applied as 5 nL/well in 40 columns of one 1536-well black-wall/black-bottom plate, with the remaining 8 columns loaded with 5 nL/well of DMSO, as no-drug controls. For each run of the screen, three plates were loaded with either (1) unlabeled HSR, or (2) HSR pre-incubated with donor-FKBP (D-FKBP; donor-only sample), or (3) donor-only sample that was additionally incubated with 0.3 μM acceptor-CaM (A-CaM) for 60 min prior to loading on the plate (donor-acceptor sample). This sub-saturating concentration of A-CaM was used to provide a readout that is sensitive to library compounds that may increase or decrease CaM binding affinity to RyR. To promote a homogenous population of RyR1 resembling that associated with myopathies, final assay conditions also included 30 nM Ca^2+ to represent resting (muscle relaxing) Ca^2+, and 5 mM oxidized glutathione (GSSG), which exaggerates the conditions associated with oxidative stress.
We acquired both FLT waveforms and fluorescence spectra, as previously described[19],[33],[34]. As previously observed, Hit effects were greatest following a 2-hour incubation with the library compounds (Supplementary Fig. 1a). As a result, all FRET results shown in Figs. 1 and 2, and Supplementary Fig. 2 are reported from the 2-hour incubation.
(§1) Necessary counter-screens to our pathological RyR1 conditions include evaluating compound effects in healthy conditions and on the cardiac isoform, RyR2. Using the same FRET assay as in HTS, we tested the dose response of key Hits from this screen and the previously HTS-identified RyR1 inhibitor, chloroxine, on healthy (5 mM GSH) and pathological (5 mM GSSG) conditions for both RyR1 in skeletal SR membranes, and RyR2 in cardiac SR membranes.
(§2) Skeletal HSR and cardiac CSR (0.4 mg/ml) membranes were independently pre-incubated with 60 nM D-FKBP, for 90 min, at 37 °C, in a solution containing 150 mM KCl, 5 mM GSH, 0.1 mg/mL BSA, 1 µg/mL Aprotinin/Leupeptin, 1 mM DTT and 20 mM PIPES (pH 7.0). To remove unbound D-FKBP, the SR membranes were spun down at 110,000 × g for 20 min, and then resuspended to 1 mg/mL (skeletal HSR) and 2 mg/mL (cardiac CSR) in binding buffer consisting of 150 mM KCl, 5 mM GSSG, 0.1 mg/mL BSA, 1μg/mL Aprotinin/Leupeptin and 20 mM PIPES, pH 7.0. These samples were then incubated with indicated [A-CaM] for 30 min at 22 °C in binding buffer containing 0.065 mM CaCl2 to give 30 nM free Ca^2+ in the presence of 1 mM EGTA (calculated by MaxChelator). This labeled SR sample was applied to the assay plates in 5 μL aliquots using a Multidrop™ Combi reagent dispenser (Thermo Scientific) with a standard-tube. An additional set of the assay plates were loaded with skeletal HSR or cardiac CSR labeled with only D-FKBP (no added A-CaM).
(§3) FLT measurements were conducted in a top-read FLT-PR designed and built by Fluorescence Innovations, Inc[33]. AF488 donor fluorescence was excited with a 473-nm microchip laser from Concepts Research Corporation (Belgium, WI), and emission was acquired with 490-nm long-pass and 517/20-nm band-pass filters (Semrock, Rochester, NY).
FLT waveforms for each well were fit based on a one-exponential decay function using least-squares minimization global-analysis software (Fluorescence Innovations, Inc.), as previously described[19],[33]. FRET efficiency (E) was determined as the fractional decrease of donor FLT (τD), due to the presence of acceptor fluorophore (τDA), using the following equation:1 E=1−τDA/τD, […]

RyR2 [2] = molecular target: T2, RyR2 (Sus scrofa, UniProt A0A5G2R1W3); assay: F-FKBP binding to RyR2 by co-sedimentation with cardiac SR membranes; set-up: using co-sedimentation with pig skeletal and cardiac SR membranes; from tissue; host or cells: pig cardiac muscle (crude SR membranes); species or system pig; conditions: RyR2, 10 μM Hit, 30 nM Ca2+, 5 mM GSSG or GSH
Experimental: (§4) The Hit-induced effect on FRET between D-FKBP and A-CaM most likely results from one or the combination of factors, including a shift in CaM and/or FKBP12.6 binding, and/or structure of the RyR complex that shifts the D-A distance. Under the same assay conditions as in the primary screen, we assessed the effect of 10 μM Hit on fluorescent FKBP12.6 (F-FKBP) binding to RyRs, using co-sedimentation with pig skeletal and cardiac SR membranes.
(§5) Supplementary Fig. 3 Effect of HTS Hits on F-FKBP binding to a) RyR1 in skeletal HSR membranes, and b) RyR2
(§6) in cardiac CSR membranes at 30 nM Ca2+ in the presence of 5 mM GSSG or GSH. Results are represented as individual
(§7) data points and means ± SEM, n = 4-5. *P < 0.05 by 2-sided Student’s unpaired t-test. […]

RyR1 [3] = molecular target: T1, RyR1; assay: F-FKBP binding to RyR1 by co-sedimentation with skeletal SR membranes; set-up: using co-sedimentation with pig skeletal and cardiac SR membranes; from tissue; host or cells: pig skeletal muscle (heavy SR membranes); species or system pig; conditions: RyR1, 10 μM Hit, 30 nM Ca2+, 5 mM GSSG or GSH
Experimental: as §4, §5, §6, §7

RyR1 [4] = molecular target: T1, RyR1; assay: [3H]ryanodine binding to skeletal SR vesicles; type: biochemical, porcine; set-up: RyR1 in skeletal SR membranes, and RyR2 in cardiac SR membranes; from tissue; host or cells: porcine longissimus dorsi muscle (heavy SR vesicles); conditions: 0-20 μM compound, Supplementary Fig. 5
Experimental: To evaluate the functional impact of compounds identified through our FRET-based screen, we first used [^3H]ryanodine binding assays. The level of [^3H]ryanodine binding to RyRs in SR membranes is a well-established index of the RyR channel activity. Given the role of CaM binding in our FRET readout, we investigated whether CaM influences the functional effect of the Hit compounds by carrying out [^3H]ryanodine binding assays in the absence and presence of CaM (300 nM).
Crude sarcoplasmic reticulum (CSR) vesicles were isolated from porcine longissimus dorsi muscle and porcine cardiac left ventricle tissue by differential centrifugation of homogenized tissue. HSR vesicles, which are enriched in RyR1, were isolated by fractionation of crude skeletal SR vesicles using a discontinuous sucrose gradient. All vesicles were flash-frozen and stored at −80 °C. Immediately prior to the fluorescence or [^3H]ryanodine binding studies described below, the SR vesicles were stripped of residual endogenous CaM by incubation with a peptide derived from the CaM binding domain of myosin light chain kinase, followed by sedimentation.
In 96-well plates, HSR vesicles (1 mg/ml) and cardiac CSR vesicles (3 mg/mL) were pre-incubated with 0.02% DMSO or Hit compound, with or without 300 nM CaM, for 30 min at 22 °C in a solution containing 150 mM KCl, 5 mM GSSG, 1 µg/mL Aprotinin/Leupeptin, 1 mM EGTA, and 65 µM or 1.02 mM CaCl2 (as determined by MaxChelator to yield 30 nM or 30 μM of free Ca^2+, respectively), 0.1 mg/mL BSA and 20 mM K-PIPES (pH 7.0). Non-specific and maximal [^3H]ryanodine binding to SR were separately assessed by addition of 40 µM non-radioactively labeled ryanodine or 5 mM Adenylyl-imidodiphosphate, respectively. Such control samples were each distributed over 4 wells/plate. Binding of [^3H]ryanodine (10 and 15 nM for cardiac and skeletal SR, respectively) was determined after a 3-h incubation (37 °C) and filtration through grade GF/B Glass Microfiber filters (Brandel Inc., Gaithersburg, MD, US) using a Brandel Harvester. In 4 mL of Ecolite Scintillation cocktail (MP biomedicals, Solon, OH, USA), [^3H] on filter was counted using a Beckman LS6000 scintillation counter (Fullerton, CA).

RyR2 [5] = molecular target: T2, RyR2; assay: FLT-FRET between D-FKBP and A-CaM bound to RyR2 in cardiac SR membranes (dose-response); type: binding, porcine; set-up: RyR1 in skeletal SR membranes, and RyR2 in cardiac SR membranes; from tissue; host or cells: porcine cardiac left ventricle (crude SR vesicles); conditions: RyR2, dose-response, 30 nM Ca2+
Experimental: as §1, §2, §3
FLT waveforms for each well were fit based on a one-exponential decay function using least-squares minimization global-analysis software (Fluorescence Innovations, Inc.), as previously described[19],[33]. FRET efficiency (E) was determined as the fractional decrease of donor FLT (τD), due to the presence of acceptor fluorophore (τDA), using the following equation:1 E=1−τDA/τD,

[6] = test system: RyR1 Ca^2+ leak in human skinned skeletal muscle fibers; assay: t-system Ca2+ readout of RyR1 Ca2+ leak in human mechanically skinned skeletal muscle fibers; conditions: 1 mM
[7] = isoform not given (figures show skeletal and cardiac SR)

T2 sequence (A0A5G2R1W3 20-4900): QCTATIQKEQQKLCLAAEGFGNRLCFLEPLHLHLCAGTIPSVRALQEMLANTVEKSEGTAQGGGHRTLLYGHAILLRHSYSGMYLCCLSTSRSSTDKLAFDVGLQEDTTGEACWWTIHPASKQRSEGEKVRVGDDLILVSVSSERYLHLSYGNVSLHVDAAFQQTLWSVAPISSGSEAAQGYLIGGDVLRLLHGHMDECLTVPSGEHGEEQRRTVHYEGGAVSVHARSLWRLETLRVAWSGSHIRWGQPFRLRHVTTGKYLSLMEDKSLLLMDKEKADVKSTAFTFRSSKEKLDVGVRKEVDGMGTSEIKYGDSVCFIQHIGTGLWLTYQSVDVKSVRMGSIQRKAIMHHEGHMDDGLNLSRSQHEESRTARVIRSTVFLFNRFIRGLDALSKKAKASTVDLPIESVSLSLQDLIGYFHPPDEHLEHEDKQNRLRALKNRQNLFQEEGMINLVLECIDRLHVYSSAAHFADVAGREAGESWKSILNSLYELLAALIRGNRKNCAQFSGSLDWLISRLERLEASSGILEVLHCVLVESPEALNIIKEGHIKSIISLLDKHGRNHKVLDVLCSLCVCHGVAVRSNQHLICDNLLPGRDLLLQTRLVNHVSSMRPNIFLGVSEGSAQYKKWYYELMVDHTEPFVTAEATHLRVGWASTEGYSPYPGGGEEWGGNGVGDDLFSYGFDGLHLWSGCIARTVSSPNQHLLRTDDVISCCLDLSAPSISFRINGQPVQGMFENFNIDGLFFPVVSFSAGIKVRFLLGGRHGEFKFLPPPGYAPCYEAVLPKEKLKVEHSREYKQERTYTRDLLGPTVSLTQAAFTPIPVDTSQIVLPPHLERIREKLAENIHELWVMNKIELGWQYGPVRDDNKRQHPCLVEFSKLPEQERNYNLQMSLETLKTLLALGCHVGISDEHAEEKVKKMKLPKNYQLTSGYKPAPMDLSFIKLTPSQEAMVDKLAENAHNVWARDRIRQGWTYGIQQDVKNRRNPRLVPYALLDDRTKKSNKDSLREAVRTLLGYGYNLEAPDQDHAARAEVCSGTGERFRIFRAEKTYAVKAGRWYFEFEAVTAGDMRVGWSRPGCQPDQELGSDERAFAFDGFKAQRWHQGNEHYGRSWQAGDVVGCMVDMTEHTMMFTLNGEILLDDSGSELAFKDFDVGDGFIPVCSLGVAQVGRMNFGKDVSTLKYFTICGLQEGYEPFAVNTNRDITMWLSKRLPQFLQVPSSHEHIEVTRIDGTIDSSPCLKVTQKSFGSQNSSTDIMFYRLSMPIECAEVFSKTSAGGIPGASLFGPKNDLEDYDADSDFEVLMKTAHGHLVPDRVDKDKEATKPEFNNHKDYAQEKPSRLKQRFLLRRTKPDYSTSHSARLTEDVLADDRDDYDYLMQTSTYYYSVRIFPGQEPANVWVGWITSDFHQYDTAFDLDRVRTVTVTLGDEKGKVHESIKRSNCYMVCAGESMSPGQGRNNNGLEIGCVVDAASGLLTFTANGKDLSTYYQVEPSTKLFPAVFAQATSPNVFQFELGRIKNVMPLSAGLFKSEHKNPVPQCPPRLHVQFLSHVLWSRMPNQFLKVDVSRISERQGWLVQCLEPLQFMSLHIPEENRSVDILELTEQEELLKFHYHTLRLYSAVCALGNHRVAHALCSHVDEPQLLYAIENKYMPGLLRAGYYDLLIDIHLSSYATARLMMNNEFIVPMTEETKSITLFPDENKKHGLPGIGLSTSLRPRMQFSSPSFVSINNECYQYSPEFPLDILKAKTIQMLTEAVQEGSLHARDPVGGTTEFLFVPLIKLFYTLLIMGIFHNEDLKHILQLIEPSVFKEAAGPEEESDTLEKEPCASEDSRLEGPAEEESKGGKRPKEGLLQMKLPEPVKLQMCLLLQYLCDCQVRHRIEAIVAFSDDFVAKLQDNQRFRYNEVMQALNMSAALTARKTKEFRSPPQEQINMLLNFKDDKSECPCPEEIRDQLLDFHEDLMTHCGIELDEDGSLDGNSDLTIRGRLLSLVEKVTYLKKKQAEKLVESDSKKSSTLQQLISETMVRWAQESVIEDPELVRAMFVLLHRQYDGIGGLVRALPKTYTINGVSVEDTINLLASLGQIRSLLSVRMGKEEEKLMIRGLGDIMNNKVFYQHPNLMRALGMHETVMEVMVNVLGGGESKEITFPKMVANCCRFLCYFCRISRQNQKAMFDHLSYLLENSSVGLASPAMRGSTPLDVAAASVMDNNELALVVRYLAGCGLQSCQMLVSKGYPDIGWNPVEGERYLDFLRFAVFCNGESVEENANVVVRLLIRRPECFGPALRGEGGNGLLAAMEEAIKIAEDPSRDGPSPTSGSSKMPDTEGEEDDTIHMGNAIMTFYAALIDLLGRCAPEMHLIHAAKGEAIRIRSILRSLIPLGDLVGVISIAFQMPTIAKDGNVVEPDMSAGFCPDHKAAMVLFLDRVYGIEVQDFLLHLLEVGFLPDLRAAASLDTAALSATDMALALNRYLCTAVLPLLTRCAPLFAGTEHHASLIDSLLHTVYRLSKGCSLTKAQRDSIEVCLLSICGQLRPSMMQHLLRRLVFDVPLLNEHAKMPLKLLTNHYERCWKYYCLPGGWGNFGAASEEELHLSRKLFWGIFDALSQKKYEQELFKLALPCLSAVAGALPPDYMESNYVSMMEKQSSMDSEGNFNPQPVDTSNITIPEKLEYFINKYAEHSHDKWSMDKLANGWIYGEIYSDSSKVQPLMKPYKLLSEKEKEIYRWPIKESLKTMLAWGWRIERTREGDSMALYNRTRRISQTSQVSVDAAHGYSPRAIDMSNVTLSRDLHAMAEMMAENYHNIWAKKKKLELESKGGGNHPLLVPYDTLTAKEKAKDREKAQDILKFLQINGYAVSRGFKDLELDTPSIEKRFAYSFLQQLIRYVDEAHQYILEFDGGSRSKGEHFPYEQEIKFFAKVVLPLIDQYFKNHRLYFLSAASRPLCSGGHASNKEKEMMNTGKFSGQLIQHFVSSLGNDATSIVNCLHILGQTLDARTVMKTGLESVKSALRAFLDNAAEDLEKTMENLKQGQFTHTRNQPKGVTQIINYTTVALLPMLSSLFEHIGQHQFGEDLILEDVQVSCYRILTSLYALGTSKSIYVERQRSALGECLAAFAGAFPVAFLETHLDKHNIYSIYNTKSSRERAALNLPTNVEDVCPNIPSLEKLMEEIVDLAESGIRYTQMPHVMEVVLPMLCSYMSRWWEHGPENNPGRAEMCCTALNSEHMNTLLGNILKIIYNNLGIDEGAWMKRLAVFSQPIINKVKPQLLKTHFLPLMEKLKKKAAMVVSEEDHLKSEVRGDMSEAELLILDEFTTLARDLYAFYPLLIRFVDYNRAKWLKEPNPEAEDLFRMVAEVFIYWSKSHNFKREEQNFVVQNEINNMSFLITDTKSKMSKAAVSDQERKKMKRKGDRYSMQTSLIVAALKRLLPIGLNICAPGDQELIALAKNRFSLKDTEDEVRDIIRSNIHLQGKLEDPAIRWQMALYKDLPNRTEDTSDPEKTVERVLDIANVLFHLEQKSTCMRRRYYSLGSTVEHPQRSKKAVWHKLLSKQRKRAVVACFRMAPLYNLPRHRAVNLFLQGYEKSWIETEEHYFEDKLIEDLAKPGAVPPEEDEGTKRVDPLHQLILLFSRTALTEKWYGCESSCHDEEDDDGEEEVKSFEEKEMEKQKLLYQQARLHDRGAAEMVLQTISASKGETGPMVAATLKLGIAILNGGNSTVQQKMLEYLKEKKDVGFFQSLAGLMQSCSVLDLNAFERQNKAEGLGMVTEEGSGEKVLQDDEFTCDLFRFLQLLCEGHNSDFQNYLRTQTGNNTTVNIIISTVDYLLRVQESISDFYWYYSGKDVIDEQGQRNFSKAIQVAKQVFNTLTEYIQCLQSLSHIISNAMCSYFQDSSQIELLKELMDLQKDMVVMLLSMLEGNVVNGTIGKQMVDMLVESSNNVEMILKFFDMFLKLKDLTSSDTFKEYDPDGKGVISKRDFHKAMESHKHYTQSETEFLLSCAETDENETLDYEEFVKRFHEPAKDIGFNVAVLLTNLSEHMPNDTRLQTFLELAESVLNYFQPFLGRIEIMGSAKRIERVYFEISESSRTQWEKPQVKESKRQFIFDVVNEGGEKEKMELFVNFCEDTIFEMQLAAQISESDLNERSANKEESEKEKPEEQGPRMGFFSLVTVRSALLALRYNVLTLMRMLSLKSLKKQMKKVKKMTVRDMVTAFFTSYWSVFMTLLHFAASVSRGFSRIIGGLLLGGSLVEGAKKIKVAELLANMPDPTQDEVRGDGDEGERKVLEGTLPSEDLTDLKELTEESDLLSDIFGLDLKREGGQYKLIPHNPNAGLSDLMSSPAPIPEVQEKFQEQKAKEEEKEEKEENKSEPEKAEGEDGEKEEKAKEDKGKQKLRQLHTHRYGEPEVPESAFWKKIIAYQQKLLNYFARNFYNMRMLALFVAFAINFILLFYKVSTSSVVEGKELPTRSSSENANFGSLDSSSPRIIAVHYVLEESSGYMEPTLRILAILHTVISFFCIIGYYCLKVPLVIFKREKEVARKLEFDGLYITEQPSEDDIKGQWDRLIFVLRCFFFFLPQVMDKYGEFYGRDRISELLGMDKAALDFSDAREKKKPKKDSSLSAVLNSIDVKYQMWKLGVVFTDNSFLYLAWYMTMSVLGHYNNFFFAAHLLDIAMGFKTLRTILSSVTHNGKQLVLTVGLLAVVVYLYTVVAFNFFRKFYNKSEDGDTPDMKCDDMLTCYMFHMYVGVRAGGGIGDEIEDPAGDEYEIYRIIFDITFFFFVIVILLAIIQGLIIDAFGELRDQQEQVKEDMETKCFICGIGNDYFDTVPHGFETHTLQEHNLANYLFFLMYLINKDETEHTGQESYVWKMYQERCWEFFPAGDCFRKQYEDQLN

| Hit in primary FLT-FRET HTS of LOPAC (FRET altered by > 4 SD vs DMSO) (RyR1 [1]; 30 nM Ca2+) | Molecule | Influence of GSSG vs GSH on the FRET dose-response effect (RyR1 [1]; [7]) | further results |
| --- | --- | --- | --- |
| identified | CO[C@H]1C[C@@H]2CC[C@@H](C)[C@@](O)(O2)C(=O)C(=O)N2CCCC[C@H]2C(=O)O[C@H]([C@H](C)C[C@@H]2CC[C@@H](OC(=O)C(C)(CO)CO)[C@H](OC)C2)CC(=O)[C@H](C)/C=C(\C)[C@@H](O)[C@@H](OC)C(=O)[C@H](C)C[C@H](C)/C=C/C=C/C=C/1C [temsirolimus] | – | Decrease of F-FKBP binding (RyR2 [2]): 70%; Decrease of F-FKBP binding (RyR1 [3]): 20%; FRET reduction (RyR2 [5]): 68–70%; FRET reduction (RyR1 [1]; RyR1, dose-response, 30 nM Ca2+): ~ 10% |
| observe | CN=c1nc(-c2ccccc2)n(-c2ccccc2)s1 [SCH-202676] | more strongly decreased FRET in the presence of GSSG vs. GSH | – |
| identified | CCN(CC)C(=S)SSC(=S)N(CC)CC [disulfiram] | more strongly decreased FRET in the presence of GSSG vs. GSH | – |

The remaining lines, values behind:

| Molecule | Hit in primary FLT-FRET HTS of LOPAC (FRET altered by > 4 SD vs DMSO) (RyR1 [1]; 30 nM Ca2+) | Influence of GSSG vs GSH on the FRET dose-response effect (RyR1 [1]; [7]) | further results |
| --- | --- | --- | --- |
| Reactive Blue | observe | – | – |
| C[C@H](O)[C@H](O)[C@H]1CNc2nc(N)[nH]c(=O)c2N1 [(6 R)-BH4] | observe | – | – |
| C=CC[C@@H]1/C=C(\C)C[C@H](C)C[C@H](OC)[C@H]2O[C@@](O)(C(=O)C(=O)N3CCCC[C@H]3C(=O)O[C@H](/C(C)=C/[C@@H]3CC[C@@H](O)[C@H](OC)C3)[C@H](C)[C@@H](O)CC1=O)[C@H](C)C[C@@H]2OC [tacrolimus] | – | – | Decrease of F-FKBP binding (RyR2 [2]): 70%; Decrease of F-FKBP binding (RyR1 [3]): 20% |
| N.N.[Cl][Pt][Cl] [cisplatin] | decrease in FRET | more strongly decreased FRET in the presence of GSSG vs. GSH | – |
| O=C(O)C1=CC(=C(c2ccc(O)c(C(=O)O)c2)c2ccc(O)c(C(=O)O)c2)C=CC1=O [aurintricarboxylic acid] | observe | – | Compound concentration at which FRET is abolished (RyR1 [1]; FRET dose-response, isoform not given (figures show skeletal and cardiac SR)): ≥ 10 µM; Effect on [3H]ryanodine binding (RyR1 [4]): potent inhibitor |
| O=C(Nc1cccc(C(=O)Nc2ccc(S(=O)(=O)O)c3cc(S(=O)(=O)O)cc(S(=O)(=O)O)c23)c1)Nc1cccc(C(=O)Nc2ccc(S(=O)(=O)O)c3cc(S(=O)(=O)O)cc(S(=O)(=O)O)c23)c1 [NF023] | identified | – | – |
| Nc1ccc(-c2nc3ccc(-c4nc5ccc(N)cc5[nH]4)cc3[nH]2)cc1 [Ro 90–7501] | – | very similar FRET dose-response effects with GSSG or GSH | Effect on FRET (RyR1 [1]; micromolar [compound]): decreased; Effect on FRET (RyR1 [1]; sub-micromolar [compound]): increased; Effect on [3H]ryanodine binding (RyR1 [4]): inhibited |
| Oc1ccc2ccccc2c1SSc1c(O)ccc2ccccc12 [IPA-3] | – | more strongly decreased FRET in the presence of GSSG vs. GSH | – |
| CCCCNc1ccc(C(=O)OCCN(C)C)cc1 [Tetracaine, tetracaine] | – | – | RyR inhibition (reference level of leak assay) [6]: full RyR inhibition |
